# Test results from patent US20250282770A1, “BIOLUMINESCENT PROBES TO TRACK STEM CELLS IN VIVO” (THE BOARD OF TRUSTEES OF THE UNIVERSITY OF ILLINOIS, priority 2024, published 2025).
# Tests used:
# [1] = Evaluation of acetal response to 1 M HCl; type: physicochemical; conditions: 100 μM; 1 M HCl for one hour; ALDH1A1 0.4 μM; compared among 9, 10, 11
# Protocol: Evaluation of Acetal Response to 1 M HCl. To identify the most robust turn-on to be utilized for this study, compounds 9, 10, and 11 were tested for their ability to be deprotected under acidic conditions. Each acetal was dissolved in DMSO and subjected to equal-volume 1 M HCl and incubated at room temperature for 60 minutes. After this time, each solution was neutralized with 1 M NaOH and diluted to a concentration of 1 mM with PBS. In a black 96-well plate, PBS, NAD^+ (2.5 mM), ALDH1A1 (0.4 μM), and either compound 9, 10 or 11 (100 μM) were added. After 5 minutes, each well was treated with ATP-MgSO4 (45 μL, prepared by mixing 17.78 mM ATP-Mg and 35.56 mM MgSO4 in a 1:1 ratio in PBS buffer) and luciferase (5 μL, 1 mg/mL in PBS containing 10% glycerol) to initiate bioluminescence production. Light was collected immediately after mixing, and the signal enhancement was determined relative to control wells containing no probe or enzymes. The total volume of each well was 200 μL (PBS (pH 7.4) with 0.5% DMSO). All data reported as the mean±standard deviation (n=4).
# β-Galactosidase = molecular target: T1, β-Galactosidase (Escherichia coli, UniProt P00722); experiment: Stability of AlDeLuc to β-Galactosidase; type: biochemical; conditions: 10 μM; 1 unit of β-Gal
# T1 construct: purchased Millipore-Sigma Aldrich
# T1 sequence (P00722 2-1024): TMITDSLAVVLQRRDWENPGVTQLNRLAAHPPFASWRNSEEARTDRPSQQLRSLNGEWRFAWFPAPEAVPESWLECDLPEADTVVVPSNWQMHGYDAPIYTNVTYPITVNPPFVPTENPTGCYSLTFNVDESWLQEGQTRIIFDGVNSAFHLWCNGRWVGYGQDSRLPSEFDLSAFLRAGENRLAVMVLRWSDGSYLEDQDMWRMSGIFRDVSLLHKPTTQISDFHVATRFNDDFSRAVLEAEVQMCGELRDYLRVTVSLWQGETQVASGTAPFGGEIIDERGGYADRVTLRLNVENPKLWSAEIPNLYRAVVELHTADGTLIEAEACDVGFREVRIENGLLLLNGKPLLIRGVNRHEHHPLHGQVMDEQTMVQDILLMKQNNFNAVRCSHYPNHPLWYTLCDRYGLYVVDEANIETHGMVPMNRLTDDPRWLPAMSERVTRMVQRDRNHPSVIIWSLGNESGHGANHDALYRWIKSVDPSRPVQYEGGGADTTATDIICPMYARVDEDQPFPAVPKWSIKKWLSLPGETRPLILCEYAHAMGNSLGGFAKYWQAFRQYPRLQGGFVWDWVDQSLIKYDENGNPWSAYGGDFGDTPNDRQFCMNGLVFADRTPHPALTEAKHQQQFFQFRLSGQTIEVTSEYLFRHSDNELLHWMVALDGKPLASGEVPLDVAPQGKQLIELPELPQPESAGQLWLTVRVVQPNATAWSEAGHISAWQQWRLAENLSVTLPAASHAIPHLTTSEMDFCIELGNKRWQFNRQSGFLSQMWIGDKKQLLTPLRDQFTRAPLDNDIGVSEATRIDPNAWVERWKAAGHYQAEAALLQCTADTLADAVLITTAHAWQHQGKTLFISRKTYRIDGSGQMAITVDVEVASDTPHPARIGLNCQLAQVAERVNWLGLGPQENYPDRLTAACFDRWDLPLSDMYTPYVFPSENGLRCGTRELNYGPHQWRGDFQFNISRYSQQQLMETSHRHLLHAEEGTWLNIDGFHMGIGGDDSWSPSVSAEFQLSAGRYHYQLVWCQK
# Protocol: Exploring the Stability of AlDeLuc to β-Galactosidase. The stability of AlDeLuc (10 μM) against β-Galactosidase (β-gal) was determined using a black 96-well plate and monitored using the IVIS imaging system. In a 96-well plate was added PBS (pH 7.4), β-gal (1 unit), and AlDeLuc. As a positive control to the same plate, was added PBS (pH 7.4), ALDH1A1 (0.4 μM), NAD^+ (1 mM), and acid activated AlDeLuc. Immediately after AlDeLuc was added, ATP-MgSO4 (45 μL, prepared by mixing 17.78 mM ATP-Mg and 35.56 mM MgSO4 in a 1:1 ratio in PBS buffer) and luciferase (5 μL, 1 mg/mL in PBS containing 10% glycerol) were administered to initiate bioluminescence production. Light was collected promptly after mixing, and the total luminescent counts were measured for both conditions. The total volume of each well was 200 μL with 0.1% DMSO. All data reported as the mean±standard deviation (n=4).
# 4T1-Luc cells = experiment: MTT cytotoxicity assay; type: cell-based, murine; conditions: up to the highest concentration tested (100 μM); 2 hours
# Protocol: MTT Cytotoxicity Assay. 48-well plates were seeded with 100,000 cells per well ([…]) and incubated at 37° C. with 5% CO2 for 16 hours (˜75% confluent). Media was removed and fresh RPMI 1640 media with 10% FBS containing 100, 50 25, 12.5, 6.25, 3.13, 1.56, or 0 μM AlDeLuc (1% DMSO final v/v) was added. The media was removed after two hours and replaced with 500 μL of 18:1 mixture of FBS-free RPMI 1640 and (3-(4,5-dimethylthiazol-2-yl)-2,5-diphenyltetrazolium bromide (MT, 5 mg/mL stock in PBS). The cells were incubated for one hour at the same conditions before the media was removed. DMSO (500 μL/well) was added, and the absorbance was read at 555 nm on a microplate reader. Viability was calculated by the absorbance relative to the vehicle control. Values are reported as the mean±standard deviation (n=3).
# [2] = system: 4T1 murine mammary carcinoma cells; experiment: AlDeLuc activation in 4T1 cells, lysate bioluminescence; type: cell-based; conditions: 4T1 cell lysates; 100 μM, 60 minutes
# Protocol: Validation of ALDH-Mediated Activation of AlDeLuc in Murine Breast Cancer Cells. 4T1 cells were cultured in T75 culture flasks. After two days, cells had become ˜90% confluent. An aliquot of RPMI 1640 media (1 mL) was removed from each flask and replaced with either DEAB ([…], 0.5% DMSO) or vehicle (0.5% DMSO). After incubation for one hour, the solutions were aspirated, washed with PBS, and resuspended in fresh RPMI 1640 media (9 mL). Each flask was then incubated with the AlDeLuc (100 μM) and DEAB (500 μM) or AlDeLuc (100 μM) and vehicle (DMSO), each with a final concentration of 1% DMSO. After 60 minutes, this solution was aspirated, washed with fresh PBS, and detached from the culture flasks. The cells were then transferred to a 15 mL centrifuge tube and pelleted at 1000 rpm for 5 minutes at room temp. The cells were resuspended in PBS along with 10% protease inhibitor solution (1 protease inhibitor mini tablet per 10 mL of PBS, Pierce, Thermo Fisher Scientific) and sonicated on ice for 2.5 minutes (pulse 01, 01, 40%). The cell debris was removed via centrifugation and the supernatant was plated ([…]) into a 96-well plate (n=4 for each condition). […] ROIs were drawn around each well and the signal intensity was quantified using the Living Image Analysis software.
# BALB/c mice = experiment: Evaluation of systemic toxicity of AlDeLuc, H&E staining of organs; type: in vivo; conditions: 0.55 mg/kg systemic (retro-orbital); four hours
# Protocol: Evaluation of Systemic Toxicity of AlDeLuc in BALB c mice. BALB/c mice were anesthetized and administered AlDeLuc or vehicle via retro-orbital injection (0.55 mg/kg, 1:19 v/v DMSO:PBS). After four hours, mice were euthanized, and their organs were harvested, fixed in formalin, and submitted to Veterinary Medicine for Hematoxylin and eosin staining.
# ALDH1A1 activity = experiment: High-fat diet inflammatory model, orthotopic 4T1-Luc tumors, AlDeLuc imaging after L-NMMA; type: in vivo, BALB/c mice; conditions: control group (water gavage), AlDeLuc 0.55 mg/kg, 40 min
# Protocol: Finally, to examine how NO influences ALDH1A1 activity in vivo we placed BALB/c mice (female, 5-7 weeks old) on a high-fat diet for 40 weeks to induce an inflammatory response through elevated NO production. This period consists of a ˜20-week priming period prior to inoculation of the animals with 4T1-Luc cells at the mammary fat pad. At this point, the mice were randomized into two groups. The treatment group was administered L-NMMA (50 mg/kg), whereas the control group received water via oral gavage for 20 days. The day after the final treatment, mice from both conditions were treated systemically with AlDeLuc, and the bioluminescence was monitored (FIG. 5e). […] At the completion of the diet study, animals were sacrificed, and their tumors were excised for further immunohistochemical analysis.
# Generation of an Orthotopic 4T1-Luc Breast Cancer Model for Diet Studies. Female BALB/c mice (˜6 weeks old) were inoculated with 4T1-Luc cells (50 μL of 1×10^5 cells in 1:1 v/v serum-free RPMI 1640 media and Matrigel) via subcutaneous injections into the mammary fat pad. Tumor volumes were measured using the caliper method every three days. Body weight was measured daily over the course of the experiment.
smiles,measurement,setting,value
"CCN(CC)c1ccc2nc(C3=N[C@@H](C(OC)OC)CS3)sc2c1 [AlDeLuc, (S)-2-(4-(dimethoxymethyl)-4,5-dihydrothiazol-2-yl)-N,N-diethylbenzo[d]thiazol-6-amine]","acid resistance of acetal (bioluminescence emission after HCl, neutralization, ALDH1A1 and luciferase)",[1],most acid-resistant
same,stability of acetal,β-Galactosidase,completely stable
same,cell viability (MTT),4T1-Luc cells,nontoxic
same,increase in bioluminescence compared to blank controls,[2],42 fold
same,"H&E stains of spleen, kidneys, lungs, heart, liver compared to vehicle animals",BALB/c mice,indistinguishable
same,total luminescent counts,ALDH1A1 activity,1.7±0.8×10^4
